Assay results taken from patent publication US9687429B2, “Antimicrobial compositions containing low concentrations of botanicals” (THE TRUSTEES OF COLUMBIA UNIVERSITY IN THE CITY OF NEW YORK, priority 2007, dated 2017).

Key:
S. aureus [1] = details: erythromycin, gentamicin, vancomycin, ciproflaxin, clindamycin, tetracycline; cited from earlier work
S. aureus [2] = assay: Five-minute kill test of solutions in 10% SDA40-B alcohol and water, colony counts; assay type: cell-based; details: control counts 1 × 10^6 to 5 × 10^6
Experimental: Various concentrations of basil oil and acetic, lactic, and citric acids, separately and in combination, were prepared in 10 percent SDA40-B alcohol and water, and adjusted to 100 percent. Except for citric acid, which was added by weight, all other ingredients were measured by volume. 0.9 ml of each solution were dispensed in sterile culture tubes, in triplicate, and 0.1 ml of a 10^7 cfu/ml S. aureus culture was added to the tubes, vortexed, and then, five minutes later, 9.0 ml of drug inactivating medium was added to each tube. Serial dilutions were made with the drug inactivating medium. 0.5 ml of the dilutions were plated on trypticase soy agar (“TSA”) plates. As a control, water containing 10 percent SDA40-B alcohol was processed in parallel. The plates were incubated at 37° C. for 24-48 hours and then the colony counts were determined.
The same methodology was used to test the antimicrobial activity of combinations of citric acid with other essential oils.
Various concentrations of cinnamon leaf oil and citric acid were dissolved in SDA 40-B alcohol (10%) and water, and adjusted to 100 percent. Except for citric acid, which was added by weight, all other ingredients were measured by volume. 0.9 ml of each solution were dispensed in sterile culture tubes, in triplicate, and 0.1 ml of 10^7 cfu/ml of S. aureus culture was added to the tubes, vortexed, and then, five minutes later, 9.0 ml of drug inactivating medium was added to each tube. Serial dilutions were made with the drug inactivating medium. 0.5 ml of the dilutions were plated on trypticase soy agar (“TSA”) plates. As a control, water containing 10% percent SDA40-B alcohol was processed in parallel. The plates were incubated at 37° C. for 24-48 hours and then the colony counts were determined.
The following experiments were performed to evaluate the antibacterial activity of LG and Citric acid dissolved in alcohol, where the test organism used was S. aureus. Various amounts of LG oil and Citric acid were dissolved in SDA40-B alcohol, and then water was added to result in the EO concentration shown and an alcohol concentration of 10 percent. 0.9 ml of each solution were dispensed in sterile culture tubes, in triplicate, and 0.1 ml of a 10^7 cfu/ml S. aureus culture was added to the tubes, vortexed, and then, five minutes later, 9.0 ml of drug inactivating medium was added to each tube. Serial dilutions were made with drug inactivating medium. 0.5 ml of the dilutions were plated on trypticase soy agar (“TSA”) plates. As a control, water containing 10 percent SDA40-B alcohol was processed in parallel. The plates were incubated at 37° C. for 24-48 hours and then the colony counts were determined.

S. aureus [3] = assay: Soap rapid kill test (30 second kill) in presence of bovine serum; assay type: cell-based
Experimental: The antimicrobial activity of the above soap was tested in parallel with commercial Softsoap® containing triclosan (Softsoap® Antibacterial; Colgate-Palmolive). 0.1 ml of a 10^8 cfu/ml culture of each microbe tested was mixed with 0.1 ml of bovine serum and placed in a sterile culture tube. 0.8 ml of the test soap formulation was added to the tube and vortexed for 30 seconds. Then 9.0 ml DNB was added to neutralize the activity of the soap. The tube was then vortexed and serially diluted with DNB. 0.5 ml of the diluted solution was plated on TSA plates. The same soap base lacking cinnamon oil, citric acid, and orange oil, with phosphate buffered saline mixed with the culture, were used as the controls.
The antimicrobial activity of the above soap was tested in parallel with commercial Dial® Antibacterial Hand Soap) containing triclosan. 0.1 ml of a 10^8 cfu/ml culture of each microbe tested was mixed with 0.1 ml of bovine serum and placed in a sterile culture tube. 0.8 ml of the test soap formulation was added to the tube and vortexed for 30 seconds. Then 9.0 ml DNB was added to neutralize the activity of the soap. The tube was then vortexed and serially diluted with DNB. 0.5 ml of the diluted solution was plated on TSA plates. The same soap base lacking cinnamon oil, citric acid, and orange oil, with phosphate buffered saline mixed with the culture, were used as the controls.
The following method was used. A mixture of 0.1 ml of 10^7 cfu/ml of S. aureus culture and 0.1 ml of bovine serum were placed in a sterile culture tube. 0.8 ml of the test soap formulation was added to the tube and vortexed for 30 seconds. 9.0 ml DFN was added to the tube to neutralize the activity of the soap; this tube was then vortexed and serially diluted with DFN. 0.5 ml of the diluted solution was plated on trypticase soy agar plates, incubated at 37° C. for 24-48 hours and the colony counts were determined. Soft Soap® and Dial® soaps containing 0.15% triclosan was also tested similarly at the same time. The soap base without essential oils and Citric acid containing the culture were used as controls.
The following method was used. A mixture of 0.1 ml of 10^7 cfu/ml of S. aureus culture and 0.1 ml of bovine serum were placed in a sterile culture tube. 0.8 ml of the test soap formulation was added to the tube and vortexed for 30 seconds. 9.0 ml DFN was added to the tube to neutralize the activity of the soap; this tube was then vortexed and serially diluted with DFN. 0.5 ml of the diluted solution was plated on trypticase soy agar plates, incubated at 37° C. for 24-48 hrs and the colony counts were determined. Soft Soap® and Dial® soaps containing 0.15% triclosan was also tested similarly at the same time. The soap base without essential oils and citric acid containing the culture were used as controls.
The following method was used. A mixture of 0.1 ml of 10^8 cfu/ml of S. aureus culture and 0.1 ml of bovine serum were placed in a sterile culture tube. 0.8 ml of the test soap formulation was added to the tube and vortexed for 30 seconds. 9.0 ml DFN was added to the tube to neutralize the activity of the soap; this tube was then vortexed and serially diluted with DFN. 0.5 ml of the diluted solution was plated on trypticase soy agar plates, incubated at 37° C. for 24-48 hours and the colony counts were determined.
A mixture of 0.1 ml of 10^7 cfu/ml of S. aureus culture and 0.1 ml of bovine serum were placed in a sterile culture tube. 0.8 ml of the test soap formulation was added to the tube and vortexed for 30 seconds. 9.0 ml DFN was added to the tube to neutralize the activity of the soap; this tube was then vortexed and serially diluted with DFN.

S. aureus [4] = assay: Synergistic activity of essential oils and plant extracts with citric acid, log10 reduction from control bacterial counts; assay type: cell-based; details: Table 202, compounds in %, control counts 1×10^7 to 5×10^7
Text: Log10 reduction from control bacterial counts that range from 1×10^7 to 5×10^7.

Structure (SMILES): CC(C)=CCC/C(C)=C/CC1CCCC1=O (centres unmarked) [apritone]
- effect on susceptibility of S. aureus to antibiotics (in words) (S. aureus [1]): enhanced the susceptibility of S. aureus

Structure (SMILES): CC(O)C(=O)O (centres unmarked) [1% Lactic acid (LA)]
- Log10 Reduction from control bacterial counts (S. aureus [2]; Table 105, five minutes): 2.3 Log10

Structure (SMILES): CCCCCCCCC(O)CO (centres unmarked) [1,2 decanediol (0.3%)]
- Log10 reduction from control (S. aureus [3]; Table 150, 30 seconds, bovine serum, alkanediols 0.3%, control 2 × 10^8-5 × 10^8): 0.6 Log10

Structure (SMILES): CCCCCCCCC(O)CO (centres unmarked) [1,2 decanediol(0.5%)]
- Log10 reduction from control (S. aureus [3]; Table 151, 30 second Kill, alkanediols 0.5%, soaps pH 4.5-4.6, control 2 × 10^8-5 × 10^8): 1.4 Log10

Structure (SMILES): O=C(O)CC(O)(CC(=O)O)C(=O)O [citric acid]
- antibacterial activity of soap, 30 second kill (in words) (S. aureus [3]; bovine serum): enhance the activity of soaps containing triclosan

Structure (SMILES): CC(C)=CCCC(C)=CCCC(C)=CCO [farnesol]
- effect on susceptibility of S. aureus to antibiotics (in words) (S. aureus [1]): enhanced the susceptibility of S. aureus

Structure (SMILES): C=CCc1ccc(O)c(OC)c1 [eugenol]
- antibacterial activity of soap, 30 second kill (in words) (S. aureus [3]; bovine serum): improved the antimicrobial effect

Structure (SMILES): CC(=O)O [1% Acetic acid (AA)]
- Log10 Reduction from control bacterial counts (S. aureus [2]; Table 105, five minutes): 0.2 Log10

Structure (SMILES): O=C(O)CC(O)(CC(=O)O)C(=O)O [1% Citric Acid (CA)]
- Log10 Reduction from control bacterial counts (S. aureus [2]; Table 105, five minutes): 0.1 Log10

Structure (SMILES): O=C(O)CC(O)(CC(=O)O)C(=O)O [1 Citric acid]
- Log10 Reduction from control bacterial counts (S. aureus [4]): 0.7 Log10

Structure (SMILES): CC(C)=CCC[C@](C)(O)C1CC=C(C)CC1 (some centres unmarked) [bisabolol]
- effect on susceptibility of S. aureus to antibiotics (in words) (S. aureus [1]): enhanced the susceptibility of S. aureus

Structure (SMILES): CC(C)=CCCC(C)=CCCC(C)=CCO [0.25% Farnesol]
- Log10 Reduction from control bacterial counts (S. aureus [2]; Table 106, five minutes): 0 Log10

Structure (SMILES): C=CC(C)(O)CCC=C(C)CCC=C(C)C (centres unmarked) [nerolidol]
- effect on susceptibility of S. aureus to antibiotics (in words) (S. aureus [1]): enhanced the susceptibility of S. aureus

Structure (SMILES): CCCCCCCCC(O)CO (centres unmarked) [decanediol, 1,2 decanediol]
- antibacterial activity of soap, 30 second kill (in words) (S. aureus [3]; bovine serum): enhances the activity of Dial®-T Soap+LG-O-Cit 4
